Target: T1, KMO mouse enzyme (Mus musculus, UniProt Q91WN4)
T1 construct: KMO enzyme prepared at Evotec from mouse liver (4-6 weeks old) via mitochondria isolation; from tissue; host or cells: mouse liver (4-6 weeks old), isolated mitochondria
Assay: KMO enzyme assay monitoring L-Kynurenine hydroxylation to 3OH-KYN by LC/MS (protocols substantially similar to Biology Example 3)
Type: biochemical
Settings: compound at 30 μM; KMO enzyme from mouse liver mitochondria; 100 μM L-Kynurenine
Protocol: A method of monitoring L-Kynurenine (KYN) hydroxylation to form 3-Hydroxy-Kynurenine (3OH-KYN) by LC/MS is described. Product is quantified by multiple reaction monitoring (MRM method).
• Compound: Stock concentrations: 10 mM in 100% DMSO • Enzyme: KMO enzyme prepared at Evotec from mouse liver (4-6 weeks old) via mitochondria isolation as described in the literature • Substrate: L-Kynurenine (Sigma: Cat #K3750, stock concentration: 10 mM in 100 mM potassium phosphate buffer, pH 7.4) Assay Conditions: • Buffer: 100 mM potassium phosphate, pH 7.4, 200 μM NADPH, 0.4 U/ml G6P-DH (Glucose 6-phosphate Dehydrogenase), 3 mM G6P (D-Glucose 6-phosphate) • Assay Volume: 40 μl • Plate Format: 384 well plate, transparent (Matrix) • Read-Out: product (3OH-KYN) quantification using product specific MRM • Reader: LC/MS/MS Assay Protocol: • prepare serial dilution (factor 3) of compound in 100% DMSO (top concentration=10 mM, 100% DMSO) • [[…]: 10 mM; 3.33 mM; 1.11 mM; 0.37 mM; 0.12 mM; 0.04 mM; 0.0137 mM; 0.0045 mM, […]] • prepare 3.33-fold concentrated solution of each compound concentration (top concentration 300 μM, 3% DMSO) in assay buffer • [concentrations: 300 μM; 100 μM; 33.3 μM; 11.1 μM; 3.70 μM; 1.23 μM; 0.41 μM; 0.137 μM] • prepare substrate (10 mM) at concentration of 1 mM in assay buffer • assay mix: 4 μl compound/well of each concentration+24 μl assay buffer/well+8 μl KMO mouse enzyme+4 μl 1 mM substrate (final concentration=100 μM) • [final compound top concentration: 30 μM; 0.3% DMSO] • [final compound bottom concentration: 0.0137 μM; 0.3% DMSO] • positive control: 4 μl 50 μM FCE28833 in assay buffer, 0.5% DMSO [final assay concentration=5 μM]+24 μl assay buffer/well+8 μl KMO mouse enzyme+4 μl mM substrate [final concentration=100 μM] • negative control: 28 μl assay buffer/well+8 μl KMO mouse enzyme+4 μl 1 mM substrate • [final concentration=100 μM] • incubate 40 min at RT • add 40 μl/well 10% trichloro acetic acid in water to stop the assay and precipitate protein • centrifuge plate for 3 min at 4000 rpm • product detection by LC/MS (injection of 20 μl/well, 2 fold overfill of the 10 μl sample loop) Data Analysis:
IC50's are calculated using automated fitting algorithm (A+ Analysis).
Using the assay protocols substantially similar to those of Biology Example 3, the following compounds were tested.

T1 sequence (Q91WN4 whole entry): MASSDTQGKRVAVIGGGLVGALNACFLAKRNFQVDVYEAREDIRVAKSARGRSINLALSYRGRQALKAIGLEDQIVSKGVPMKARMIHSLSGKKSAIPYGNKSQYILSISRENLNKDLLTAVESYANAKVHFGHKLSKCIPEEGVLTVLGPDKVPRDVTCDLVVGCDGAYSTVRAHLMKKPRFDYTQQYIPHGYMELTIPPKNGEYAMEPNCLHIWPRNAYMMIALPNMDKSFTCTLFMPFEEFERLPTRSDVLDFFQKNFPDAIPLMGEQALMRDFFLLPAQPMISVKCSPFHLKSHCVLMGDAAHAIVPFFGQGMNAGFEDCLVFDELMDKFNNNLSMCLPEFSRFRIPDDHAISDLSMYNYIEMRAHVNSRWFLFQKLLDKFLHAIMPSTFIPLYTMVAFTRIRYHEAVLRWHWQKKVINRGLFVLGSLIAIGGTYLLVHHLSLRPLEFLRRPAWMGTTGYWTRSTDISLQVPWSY

Row | Compound | inhibition at 30 µM [%]
1 | O=C(O)[C@H]1C[C@@H]1C(=O)c1cc(Cl)c2c(c1)CCO2 [Example 1, Method 1, (1S, 2S)-2-(7-chloro-2,3-dihydro-1-benzofuran-5-carbonyl)cyclopropane-1-carboxylic acid] | 100
2 | O=C(O)[C@H]1C[C@@H]1C(=O)c1cc(Cl)c2c(c1)CCCO2 [Example 1, Method 2, (1S, 2S)-2-(8-Chloro-3,4-dihydro-2H-1-benzopyran-6-carbonyl)cyclopropane-1-carboxylic acid] | 100
3 | Cn1c(=O)oc2cc(C(=O)[C@H]3C[C@@H]3C(=O)O)cc(Cl)c21 [Example 1, Method 3, (1S,2S)-2-(4-Chloro-3-methyl-2-oxo-2,3-dihydro-1,3-benzoxazole-6-carbonyl)cyclopropane-1-carboxylic acid] | 93.5
4 | O=C(O)[C@H]1C[C@@H]1C(=O)c1ccc2c(c1)OCCO2 [Example 1, Method 4, (1S,2S)-2-(2,3-Dihydro-1,4-benzodioxine-6-carbonyl)cyclopropane-1-carboxylic acid] | 102
5 | CC1Cc2cc(C(=O)[C@H]3C[C@@H]3C(=O)O)ccc2O1 (stereo partly drawn) [Example 1, Method 5, (1S,2S)-2-(2-methyl-2,3-dihydro-1-benzofuran-5-carbonyl)cyclopropane-1-carboxylic acid] | 103
6 | CC1Cc2cc(C(=O)[C@H]3C[C@@H]3C(=O)O)cc(Cl)c2O1 (stereo partly drawn) [Example 1, Method 6, (1S,2S)-2-(7-chloro-2-methyl-2,3-dihydro-1-benzofuran-5-carbonyl)-cyclo-propane-1-carboxylic acid] | 100
7 | CC1COc2c(Cl)cc(C(=O)[C@H]3C[C@@H]3C(=O)O)cc2C1 (stereo partly drawn) [Example 1, Method 7, (1S,2S)-2-(8-Chloro-3-methyl-3,4-dihydro-2H-1-benzopyran-6-carbonyl)cyclo-propane-1-carboxylic acid] | 101
8 | O=C(O)[C@H]1C[C@@H]1C(=O)c1cc(Cl)c2c(c1)OCCO2 [Example 1, Method 8, (1S,2S)-2-(8-Chloro-2,3-dihydro-1,4-benzodioxine-6-carbonyl)cyclopropane-1-carboxylic acid] | 102
9 | O=C(O)[C@H]1C[C@@H]1C(=O)c1cc(Cl)c2c(c1)OCO2 [Example 1, Method 9, (1S,2S)-2-(7-Chloro-2H-1,3-benzodioxole-5-carbonyl)cyclopropane-1-carboxylic acid] | 102
10 | CC1Oc2cc(C(=O)[C@H]3C[C@@H]3C(=O)O)cc(Cl)c2O1 (stereo partly drawn) [Example 1, Method 10, (1S,2S)-2-(7-Chloro-2-methyl-2H-1,3-benzodioxole-5-carbonyl)cyclopropane-1-carboxylic acid] | 102
11 | O=C(O)[C@H]1C[C@@H]1C(=O)c1ccc2c(c1)CCO2 [Example 2, Method 1, (1S,2S)-2-(2,3-dihydro-1-benzofuran-5-carbonyl)cyclopropane-1-carboxylic acid] | 98.7
12 | Cn1c(=O)oc2c(Cl)cc(C(=O)[C@H]3C[C@@H]3C(=O)O)cc21 [Example 2, Method 3, (1S,2S)-2-(7-Chloro-3-methyl-2-oxo-2,3-dihydro-1,3-benzoxazole-5-carbonyl)cyclopropane-1-carboxylic acid] | 101
13 | O=C(O)[C@H]1C[C@@H]1C(=O)c1ccc2c(c1)CCCO2 [Example 2, Method 4, (1S,2S)-2-(3,4-dihydro-2H-1-benzopyran-6-carbonyl)cyclopropane-1-carboxylic acid] | 101
14 | CC1(C)Cc2cc(C(=O)[C@H]3C[C@@H]3C(=O)O)ccc2O1 [Example 2, Method 5, (1S,2S)-2-(2,2-Dimethyl-2,3-dihydro-1-benzofuran-5-carbonyl)cyclopropane-1-carboxylic acid] | 64.8
15 | O=C(O)[C@H]1C[C@@H]1C(=O)c1ccc2c(c1)SCCO2 [Example 3, Method 5, (1S,2S)-2-(2,3-dihydro-1,4-benzoxathiine-6-carbonyl)cyclopropane-1-carboxylic acid] | 101
16 | O=C(O)[C@H]1C[C@@H]1C(=O)c1ccc2c(c1)OCO2 [Example 4, Method 5, (1S,2S)-2-(2H-1,3-benzodioxole-5-carbonyl)cyclopropane-1-carboxylic acid] | 94.1

— patent US10501433B2, “Kynurenine-3-monooxygenase inhibitors, pharmaceutical compositions, and methods of use thereof” (CHDI Foundation, Inc., priority 2013, dated 2019)
